The text below walks through data of article PMC12213745, “Compounds from Cyclocarya paliurus leaves inhibit binary division of methicillin-resistant Staphylococcus aureus by disrupting FtsZ dynamic” (Frontiers in Microbiology, 2025).

One test concerns E. coli ATCC25922. Nature of the test: MIC, broth microdilution (CLSI). In kind it is cell-based. The note with it: Escherichia coli. The text has this:
(§1) Staphylococcus aureus ATCC25923 and Escherichia coli ATCC25922 were obtained from the American Type Culture Collection (ATCC, Manassas, VA, USA). The Methicillin-resistant S. aureus (MRSA) clinical isolate MRSA-4, previously confirmed as mecA-positive and characterized for its antibiotic resistance profile ([Sun et al., 2023]), was used in this study. Staphylococcus epidermidis (GDMCC 1.143), Enterococcus faecalis (GDMCC 1.164), and Salmonella enterica subsp. enterica (GDMCC 1.1114) were obtained from the Guangdong Microbial Culture Collection Center (GDMCC, Guangzhou, China). The Pseudomonas aeruginosa PA14 strain was kindly provided by Professor Min Wu (Southwest Medical University, China). All bacterial strains were routinely cultured in Mueller-Hinton broth (MHB) or Luria-Bertani (LB) broth medium at 37°C with shaking at 200 rpm. Vancomycin was purchased from Solarbio Science & Technology Co., Ltd. (Beijing, China), and oxacillin was obtained from Taiji Group Hengsheng Pharmaceutical Co., Ltd. (Chengdu, China). The polyclonal rabbit primary anti-body to FtsZ was purchased from Abcam PLC (Cambridge, UK). Alexa488-conjugated goat anti-rabbit IgG was purchased from ZSGB-BIO Biotechnology (Beijing, China). DAPI staining solution was purchased from Beyotime Biotechnology (Shanghai, China).
(§2) The minimum inhibitory concentrations (MICs) of the test compounds (AA, MA, and UA) were determined using the standard broth microdilution method in accordance with the Clinical and Laboratory Standards Institute (CLSI) guidelines ([Humphries et al., 2021]). Bacteria were cultured in MHB or LB broth at 37°C with shaking (200 rpm) to the logarithmic phase, then diluted to a final density of 1 × 10^6 CFU/mL. Test compounds (dissolved in DMSO) and positive controls (vancomycin and oxacillin) were diluted in MHB and serially twofold diluted in 96-well plates. Each well was inoculated with 100 μL of bacterial suspension (1 × 10^6 CFU/mL), yielding a final bacterial density of 5 × 10^5 CFU/mL and a total volume of 200 μL. The final concentrations tested were 128 to 1 μg/mL for AA, MA, and UA; 16 to 0.5 μg/mL for vancomycin; and 64 to 0.0625 μg/mL for oxacillin. DMSO was used as a solvent control. Plates were incubated statically at 37°C for 18–24 h. After incubation, the OD600 was measured using a microplate reader (SpectraMax i3x, Molecular Devices, CA, USA). The MIC was defined as the lowest compound concentration that caused ≥ 90% inhibition of bacterial growth compared to the drug-free growth control. All tests were performed in three independent biological replicates.
(§3) Following the isolation and identification of AA, MA, and UA from ECPL, we evaluated their antibacterial activity and spectrum. The MICs of the compounds were determined against MRSA-4, S. aureus ATCC25923, S. epidermidis, and E. faecalis (Gram-positive), as well as P. aeruginosa PA14, E. coli ATCC25922, and S. enterica subsp. Enterica (Gram-negative) using the standard broth microdilution method in accordance with CLSI guidelines ([Humphries et al., 2021]).
On the technique in general: In broth dilution the organism is exposed to a series of concentrations in liquid medium.

The next test has as its system E. faecalis. Nature of the test: MIC, broth microdilution (CLSI). The format is cell-based. The note with it: Enterococcus faecalis.
Text: as §1, §2, §3

The subject of a further test is P. aeruginosa PA14. Nature of the test: MIC, broth microdilution (CLSI). In kind it is cell-based. Particulars: Pseudomonas aeruginosa.
Text: as §1, §2, §3

The test system of test [1] is S. aureus ATCC25923. The test is described as follows: MIC, broth microdilution (CLSI). In kind it is cell-based. Particulars: Staphylococcus aureus.
Text: as §1, §2, §3

A further test relates to S. epidermidis (1.143). Nature of the test: MIC, broth microdilution (CLSI). In kind it is cell-based. Particulars: Staphylococcus epidermidis.
Text: as §1, §2, §3

The test system of test [2] is MRSA-4. The test is described as follows: MIC, broth microdilution (CLSI). Particulars: Staphylococcus aureus. In kind it is cell-based, Methicillin-resistant S. aureus.
Text: as §1, §2, §3

Test [3] relates to S. enterica subsp. Enterica (1.1114). Nature of the test: MIC, broth microdilution (CLSI). The note with it: Salmonella enterica. In kind it is cell-based, Salmonella enterica subsp. enterica.
Text: as §1, §2, §3

Test [4] deals with MRSA-4. Nature of the test: Time-dependent killing assay. In kind it is cell-based, Methicillin-resistant S. aureus. Particulars: 2 × MIC. As to the method: An overnight culture of MRSA-4 was diluted 1:100 in fresh MHB and incubated at 37°C with shaking (200 rpm) until reaching mid-log phase (OD600 = 0.4–0.6). The culture was then adjusted to 1 × 10^6 CFU/mL and treated with AA, MA, or UA at concentrations of 1×, 2×, and 4 × MIC. 2 × MIC of vancomycin was used as a positive control, and an equivalent volume of DMSO served as the negative control. The cultures were incubated at 37°C with shaking (200 rpm) during the assay. At designated time points (0, 1, 2, 4, 8, and 24 h), samples were collected, serially diluted tenfold in sterile PBS, and 100 μL of appropriate dilutions were plated on LB agar. Plates were incubated at 37°C for 18–24 h, and viable bacteria were quantified. All experiments were performed in biological triplicates.
We next performed time-kill kinetics assays to characterize the time-dependent antibacterial effects of AA, MA, and UA against MRSA-4. Bacterial cultures were exposed to AA, MA, and UA at 1×, 2×, and 4 × their respective MICs, and viable CFU were counted at designated time points (0, 1, 2, 4, 8, and 24 h). As shown in the time-kill curves (Figure 1), treatment with 1 × or 2 × MIC of AA, MA, or UA led to an initial reduction in bacterial load within the first 2 h.

In test [5] the test system is S. aureus ATCC25923. Nature of the test: SEM analysis, cell long axis. Particulars: 2 × MIC, 2 h, mean ± SD, PBS control 0.52 ± 0.05. The format is cell-based, Staphylococcus aureus. As to the method:
(§4) Scanning electron microscopy (SEM) was used to observe the morphological changes in bacterial cells treated with the isolated compounds. S. aureus ATCC 25923 and MRSA-4 were grown in MHB to mid-log phase (OD600 = 0.4–0.6) as previously described. The bacteria cultures were treated with AA, MA, or UA at 2 × MIC for 2 h at 37°C with shaking at 150 rpm. Untreated cultures (PBS group) served as the growth control. After incubation, bacterial cells were harvested by centrifugation and washed three times with PBS (pH 7.2). Coverslips (8 mm diameter) were cleaned with absolute ethanol under ultrasonication, air-dried, immersed in 0.1% (w/v) chitosan solution (dissolved in 1% acetic acid) for 5 s, and air-dried again at room temperature ([Su et al., 2022]). A 25 μL aliquot of the washed bacterial suspension was added to each coverslip and allowed to adhere for 1 h at room temperature. Adhered cells were fixed with 1 mL of 2.5% (v/v) glutaraldehyde at 4°C overnight. Fixed samples were rinsed 2–3 times with PBS (5 min per rinse), then dehydrated through a graded ethanol series: 50, 70, and 90% ethanol (each once for 5 min), followed by 100% ethanol (three times for 5 min each). After dehydration, samples were air-dried overnight at room temperature. SEM imaging was performed using an EVO 10 scanning electron microscope (Zeiss, Jena, Germany). Cell long-axis statistical analysis was conducted using ImageJ software (Version 1.42q, National Institutes of Health, MD, USA).
(§5) Having established the antibacterial activity of AA, MA, and UA, we next examined their effects on bacterial morphology. We employed SEM to examine the alterations induced by these compounds in S. aureus ATCC25923 and MRSA-4. Bacterial cultures were treated with AA, MA, or UA at 2 × MIC for 2 h, while untreated (PBS group) cultures served as negative controls. […] In PBS groups, both S. aureus ATCC25923 and MRSA-4 maintained typical spherical morphology with smooth and intact surfaces.

The subject of test [6] is MRSA-4. Nature of the test: SEM analysis, cell long axis. The format is cell-based, Methicillin-resistant S. aureus. Particulars: 2 × MIC, 2 h, mean ± SD, PBS control 0.53 ± 0.04. As to the method:
as §4, §5

≈ marks a conversion by molar mass, not a printed value. Read-outs that look alike come from different tables or passages of the source. A value given as a limit tells only on which side of the number the result lay.

With `Cc1onc(-c2ccccc2)c1C(=O)N[C@@H]1C(=O)N2[C@@H]1SC(C)(C)[C@@H]2C(=O)O` [Oxa, Oxacillin, reference compound], the minimal inhibitory concentration (MIC) – broadly, the least concentration at which growth counts as inhibited – in the test on E. coli ATCC25922 (E. coli ATCC25922, ≥ 90% growth inhibition, 18–24 h, read-out: MIC) is more than 64 µg/mL; in the test with E. faecalis (E. faecalis, ≥ 90% growth inhibition, 18–24 h, read-out: MIC), 8 µg/mL (≈ 19.9 µM); in the test on P. aeruginosa PA14 (P. aeruginosa PA14, ≥ 90% growth inhibition, 18–24 h, read-out: MIC) it was more than 64 µg/mL; in the test on S. aureus ATCC25923 [1] (S. aureus ATCC25923, ≥ 90% growth inhibition, 18–24 h, read-out: MIC), 0.125 µg/mL (≈ 0.311 µM); in the test on S. epidermidis (1.143) (S. epidermidis (1.143), ≥ 90% growth inhibition, 18–24 h, read-out: MIC) it was 0.25 µg/mL (≈ 0.623 µM); with MRSA-4 [2] (MRSA-4, ≥ 90% growth inhibition, 18–24 h, read-out: MIC), 64 µg/mL (≈ 159 µM). Further, in [3] (S. enterica subsp. Enterica (1.1114), ≥ 90% growth inhibition, 18–24 h, read-out: MIC), the MIC was more than 64 µg/mL.
Turning to `CN[C@H](CC(C)C)C(=O)N[C@H]1C(=O)N[C@@H](CC(N)=O)C(=O)N[C@H]2C(=O)N[C@H]3C(=O)N[C@H](C(=O)N[C@H](C(=O)O)c4cc(O)cc(O)c4-c4cc3ccc4O)[C@H](O)c3ccc(c(Cl)c3)Oc3cc2cc(c3O[C@@H]2O[C@H](CO)[C@@H](O)[C@H](O)[C@H]2O[C@H]2C[C@](C)(N)[C@H](O)[C@H](C)O2)Oc2ccc(cc2Cl)[C@H]1O` [Van, Vancomycin, reference compound], the MIC with E. coli ATCC25922 (ATCC25922) was more than 16 µg/mL; against E. faecalis, 1 µg/mL (≈ 0.69 µM); against P. aeruginosa PA14 (PA14), more than 16 µg/mL; with S. aureus ATCC25923 [1] (ATCC25923), 2 µg/mL (≈ 1.38 µM); against S. epidermidis (1.143) it was 2 µg/mL (≈ 1.38 µM); against MRSA-4 [2] (MRSA), 2 µg/mL (≈ 1.38 µM). In test [3], this compound yielded an MIC of more than 16 µg/mL. Moreover, in the test with MRSA-4 [4], the “time to reduce bacterial counts below the detection limit” value was not above 8 h. The “length of long axis of cells” value in the test with S. aureus ATCC25923 [5] is listed as 0.61 ± 0.06 μm; with MRSA-4 [6], 0.57 ± 0.06 μm.
